These results are taken from paper PMC10604720, “Unraveling the Mechanism of Epichaperome Modulation by Zelavespib: Biochemical Insights on Target Occupancy and Extended Residence Time at the Site of Action” (Biomedicines, 2023).

Data set [1] in a line: Biodistribution / PET pharmacokinetics of [124I]-zelavespib in MDA-MB-468 tumor-bearing mice (data of ref 32, refitted to exponential decay). The format is in vivo, mouse. On the procedure:
Iodine-124 is a ‘non-residualizing’ isotope (i.e., free iodine-124 washes out from cells), and therefore, data derived from positron emission tomography imaging of MDA-MB-468-bearing mice that were administered a tracer amount of [^124I]-PU-AD can be used to determine real-time zelavespib concentrations delivered to tumors. Because positron emission tomography provides information on radioactivity and not molar concentrations, radioactivity data from Pillarsetty et al. were transformed into tumor concentrations to calculate the time-dependent zelavespib concentrations in tumors for an administered dose of 50 mg/kg. The drug concentration (in μM) in the tumor water space, [Drugtumor], at the time t post-administration is therefore: [Drugtumor]t=Drugdose·[Atumor]t/100%·1/W·1×10^6/MW µM where Drugdose is the administered drug dose (in mg), [Atumor]t is the activity concentration (in % injected dose per milliliter, %ID/mL) of the surrogate radiotracer, W is the water space of the tissue (in mL/g), MW is the molecular weight of the drug (i.e., zelavespib), and the factor 1 × 10^6 converts the concentration to μM. For the drug zelavespib and the surrogate radiotracer […] co-injected in a ratio of ~1 to 10,000, the drug itself is essentially the only significant form of the drug–surrogate combination in the tumor. Thus, for a co-administered dose of zelavespib (zelavespibdose in mg) and a tracer amount of [^124I]-PU-AD, the drug concentration in the tumor water space (using an average water space, W = 0.8 mL/g, and the molecular weight MW = 512) is: [Zelavespibtumor]t=Zelavespibdose · [Atumor]t/100%·2.44×10^3 µM
To study the zelavespib–epichaperome interaction in vivo, we selected, for simplicity, an epichaperome-positive tumor model (e.g., subcutaneously xenografted MDA-MB-468 tumors in mice). Using whole-body PET imaging after the injection of ^124I-labeled zelavespib, Pillarsetty et al. reported drug presence in MDA-MB-468 tumors up to 120 h post-single dose administration (~T1/2 = 60 h). Conversely, zelavespib was no longer observed in non-disease, non-metabolizing tissues after ~8 h, clearing rapidly from plasma, paralleled by a similar rapid clearance from normal tissues (i.e., chaperone-positive but epichaperome-negative). In these tumors, a clear relationship between tumor retention, pharmacodynamic effects, and anti-tumor activity was observed, supporting the notion that zelavespib was in residence with its target over the time it resided in these tumors.
These values are very much in agreement with those reported for zelavespib in human patients. […] Contrasting plasma and normal tissues and organs, the distribution of zelavespib in tumors was best fitted using a bi-exponential model. […] The first phase thus reflects the clearance of systemic agent, while the second is attributable to specific tumor retention.
Figure 1 Biodistribution of zelavespib in MDA-MB-468 tumor-bearing mice. (a) Biodistribution of [^124I]-Zelavespib in MDA-MB-468 tumors, organs, tissues, and plasma as per ref. [32]. Data are presented as means ± s.d., five mice per time point. Curves for blood, lung, heart, muscle, bone, and brain were fitted using a one-phase decay equation, and kinetics of zelavespib clearance were determined. Tumor curve was fitted to a two-phase exponential decay. k, kfast, and kslow are the rate constants. Half-life (T1/2) is computed as ln(2)/k. […] (b) Illustrative schematic showing the distinct binding kinetics of zelavespib to epichaperomes (slow off-rate) and to chaperone assemblies (fast off-rate). The tumor pharmacokinetics profile recorded in the Phase 2 interval may represent a direct reflection of the in vivo kinetics of target–drug unbinding. koff, kinetic rate constant for dissociation of an epichaperome-zelavespib assembly. Rt, retention time. […]

Details of data set [2]: method as in PMID 31668946. The following applies: whole-body PET imaging, mice; cited from earlier work.
[3] abbreviates: MDA-MB-468 tumor-bearing mice, one-phase exponential decay fit of data of ref 32.
[4] abbreviates: MDA-MB-468 tumor, bi-exponential fit, Phase 1: 0 to 8 h, data of ref 32.
Setting [5] is: MDA-MB-468 tumor, bi-exponential fit, slow terminal clearance phase, data of ref 32.
The mark [6] stands for this setting: one-phase decay fit of data of ref 32.

Take `CC(C)NCCCn1c(Sc2cc3c(cc2[124I])OCO3)nc2c(N)ncnc21` [[^124I]-zelavespib]: in data set [1] (setting [3]), the “half-life (T1/2), bone” value is reported as 2.844 h; the “half-life (T1/2), brain” value worked out at 2.655 h; the “half-life (T1/2), heart” value is listed as 3.102 h; the “half-life (T1/2), lung” value is on record as 3.367 h. For the same molecule, in data set [1] (setting [3]), the “half-life (T1/2), muscle” value stood at 5.034 h and the “half-life (T1/2), plasma/blood” value is listed as 4.380 h. Also, in data set [1] (setting [4]), the “tumor Phase 1 T1/2” value was determined as 2.876 h and the “tumor Phase 1 rate constant k (kfast)” value came out at 0.2410 h⁻¹. In data set [1] (setting [5]), the “tumor Phase 2 T1/2” value worked out at 46.80 h and the “tumor Phase 2 rate constant k (kslow)” value was determined as 0.0148 h⁻¹. Moreover, in data set [1] (setting [6]), the “clearance rate constant k, blood” value stood at 0.1583 h⁻¹; the “clearance rate constant k, bone” value came out at 0.2437 h⁻¹; the “clearance rate constant k, brain” value turned out to be 0.2611 h⁻¹; the “clearance rate constant k, heart” value was 0.2234 h⁻¹. For the same molecule, in data set [1] (setting [6]), the “clearance rate constant k, lung” value worked out at 0.2059 h⁻¹ and the “clearance rate constant k, muscle” value amounted to 0.1377 h⁻¹. In data set [2], the “T1/2 in MDA-MB-468 tumors” value is roughly 60 h and the “drug presence in MDA-MB-468 tumors, time post-single dose administration” value is given as “up to 120 h”.
